Data reported in US5955500A (G. D. Searle & Co., priority 1997, dated 1999).
Several values for one entry are separate records, joined by “and”; a condition that tells them apart may be missing. Equal values may be shown once. Read-outs that look alike come from different tables or passages of the source.

How the values were obtained:
[1] = for Concentration in octanol / Concentration in water: pH 5, individual replicates
[2] = test system: isolated working rat heart
[3] = test system: isolated working rat heart; conditions: S 100 ng/ml plus R 50-950 ng/ml cumulative
canine heart = conditions: for AH time / Heart rate / Mean arterial pressure: mean ± SE
Method: Fourteen adult mongrel dogs of either sex weighing between 19 and 25 kg were prepared for chronic electrophysiologic investigation by implanting epicardial electrodes and an indwelling aortic catheter. The dogs were fasted overnight and initially anesthetized with halothane on the day of surgery. After tracheal intubation, anesthesia was maintained with isoflurane and oxygen via positive pressure ventilation to keep end tidal carbon dioxide within the normal range. Muscular relaxation was induced by pancuronium. A right thoracotomy was performed in the fifth intercostal space. Three bipolar electrode pairs were sutured to the epicardial surface of the right atrial appendage and on the right and left ventricular apex (FIG. 5). A bipolar electrode was sutured to the right atrium close to the anatomical region of the sinoatrial node. A bipolar plunge electrode was placed into base of the interventricular septum to record a His bundle electrogram. An indwelling arterial catheter was placed into the aorta through the left femoral artery after surgical exposure of the artery at the inner side of the hind limb. All electrode leads were subcutaneously tunneled and exited through the skin between the scapulae. Incisions were closed in anatomic fashion and standard postoperative methods of analgesia were provided with 0.015 mg/kg of buprenorphine (Buprenex®, Reckitt & Colman, Hull, UK) and two times of 25 mg/kg cefazolin (Cefazolin Sodium®, SoloPak Laboratories, Elk Groove Village, Ill.) and dogs were allowed to recover from surgery for a period of seven days prior to testing.
Electrical signals from the bipolar electrodes, after suitable amplification in a custom built preamplifier (gain 1000), were filtered in a separate custom designed and built common mode rejection amplifier with a bandpass filter of 10-1000 Hz and individually adjusted for signal strength (maximal gain 400). […] Right atrial appendage (RA), right ventricular apex (RVA) and His bundle electrograms (HB) were recorded, simultaneously. […] All measurements of conduction times were made during spontaneous sinus rhythm.
The His bundle electrode (HBE) was advanced into the base of the interatrial septum from the aortic root. The electrode was advanced from a point located just behind and to the right of the origin of the right coronary artery. The HBE was slowly advanced parallel to the aorta, inferiorly and slightly anteriorly until a well discernible His potential was recorded. AV conduction (AH) interval was measured as the time difference (ms) between the onset of the initial rapid deflection in the RA electrogram to the beginning of the His potential in the HB electrogram. His-ventricular (HV) conduction time interval (ms) was measured from the beginning of the His potential (HBE) to the initial deflection of the QRS complex wave (earliest left ventricular activation) in a simultaneously recorded surface ECG lead II.
As an indicator of automaticity, sinus node recovery time (SNRT) was determined by pacing the right atrial appendage (30 s at 180 and 200 beats/min at 2 msec pulse duration; 2×threshold). SNRT was measured from the last pacing spike to the first spontaneous atrial activity on the His bundle electrogram after cessation of pacing (ms).
A timed extrastimulus (S2) was delivered 300 ms after the preceding pacing spike (S1).
Verapamil was dissolved in 5% dextrose and water ([…]).
During the postoperative period, each dog was trained to stand quietly in a sling during electrophysiological monitoring. Prior to measurement, electrical signals in each dog were monitored to verify the absence of spontaneous arrhythmias other-than normal respiratory sinus arrhythmias.
From the resting dog, 5 channel records were obtained at a sampling rate of 1 kHz per channel for 7 min to determine the following conduction intervals: AH, HV, QRS, QT and HR. A corrected QT interval [QTc=QT interval in ms/ (R-R interval in s)^1/2 ] was also calculated.

[4] = S 100 ng/ml, R 950 ng/ml, R/S ratio 9.5

For `COc1ccc(CCN(C)CCC[C@@](C#N)(c2ccc(OC)c(OC)c2)C(C)C)cc1OC` [S-verapamil, reference compound], the Concentration in octanol ([1]; listed as 100) was 5150 ng/mL and 5290 ng/mL and 5530 ng/mL, the Concentration in water ([1]; listed as 100) was 4080 ng/mL and 4880 ng/mL and 6220 ng/mL and the “Reduction of peak systolic pressure and cardiac output, in words” value ([2]; S 100 ng/ml vs R 950 ng/ml) was “more effective at reducing peak systolic pressure (FIG. 2b) as well as cardiac output”. The “Nature of cardiac effect (inotropic / chronotropic)” value ([2]; S 100 ng/ml, R 950 ng/ml) was “primarily an inotropic drug” and the “Heart rate (HR), significance vs predrug” value [2, 4] was “n.s”.

For `COc1ccc(CCN(C)CCCC(C#N)(c2ccc(OC)c(OC)c2)C(C)C)cc1OC` (racemic) [R/S (2.0)], the “Cardiac output (CO), significance vs predrug” value [3] was “n.s”, the “Heart rate (HR), significance vs predrug” value [3] was “n.s” and the “Peak systolic pressure (PSP), significance vs predrug” value [3] was “n.s”.

With `COc1ccc(CCN(C)CCCC(C#N)(c2ccc(OC)c(OC)c2)C(C)C)cc1OC` (racemic) [R/S (0.5)] the “Cardiac output (CO), significance vs predrug” value [3] was “n.s” and the “Heart rate (HR), significance vs predrug” value [3] was “n.s”.

For `COc1ccc(CCN(C)CCCC(C#N)(c2ccc(OC)c(OC)c2)C(C)C)cc1OC` (racemic) [R/S (9.5)], the “Effect of mixture on heart rate, in words” value ([2]; R/S ratio 9.5) was “additive” and the “Peak systolic pressure (PSP), significance vs predrug” value [2, 4] was “n.s”.

Compound `COc1ccc(CCN(C)CCCC(C#N)(c2ccc(OC)c(OC)c2)C(C)C)cc1OC` (racemic) [20/80S] has an AH time (canine heart; 0.1 mg/kg i.v., 0 min) of 88 ± 5 ms, a Heart rate (canine heart; 0.1 mg/kg i.v., 0 min) of 155 ± 13 beats per min and a Mean arterial pressure (canine heart; 0.1 mg/kg i.v., 0 min) of 92 ± 4 mmHg. The AH time (canine heart; 0.1 mg/kg i.v., 1 min) was 100 ± 5 ms, the Heart rate (canine heart; 0.1 mg/kg i.v., 1 min) was 143 ± 11 beats per min and the Mean arterial pressure (canine heart; 0.1 mg/kg i.v., 1 min) was 97 ± 3 mmHg. For the same compound, the AH time (canine heart; 0.1 mg/kg i.v., 2 min) was 106 ± 5 ms, the Heart rate (canine heart; 0.1 mg/kg i.v., 2 min) was 127 ± 10 beats per min and the Mean arterial pressure (canine heart; 0.1 mg/kg i.v., 2 min) was 100 ± 3 mmHg. For the same compound, the AH time (canine heart; 0.1 mg/kg i.v., 3 min) was 107 ± 5 ms, the Heart rate (canine heart; 0.1 mg/kg i.v., 3 min) was 124 ± 9 beats per min and the Mean arterial pressure (canine heart; 0.1 mg/kg i.v., 3 min) was 100 ± 4 mmHg. It also gave an AH time (canine heart; 0.1 mg/kg i.v., 4 min) of 111 ± 6 ms, a Heart rate (canine heart; 0.1 mg/kg i.v., 4 min) of 113 ± 11 beats per min and a Mean arterial pressure (canine heart; 0.1 mg/kg i.v., 4 min) of 99 ± 4 mmHg. The AH time (canine heart; 0.1 mg/kg i.v., 5 min) was 112 ± 5 ms, the Heart rate (canine heart; 0.1 mg/kg i.v., 5 min) was 111 ± 8 beats per min and the Mean arterial pressure (canine heart; 0.1 mg/kg i.v., 5 min) was 101 ± 4 mmHg. The AH time (canine heart; 0.2 mg/kg i.v., 0 min) was 110 ± 10 ms, the Heart rate (canine heart; 0.2 mg/kg i.v., 0 min) was 168 ± 10 beats per min and the Mean arterial pressure (canine heart; 0.2 mg/kg i.v., 0 min) was 84 ± 3 mmHg. The AH time (canine heart; 0.2 mg/kg i.v., 1 min) was 126 ± 11 ms, the Heart rate (canine heart; 0.2 mg/kg i.v., 1 min) was 166 ± 9 beats per min and the Mean arterial pressure (canine heart; 0.2 mg/kg i.v., 1 min) was 87 ± 4 mmHg. The AH time (canine heart; 0.2 mg/kg i.v., 2 min) was 133 ± 10 ms, the Heart rate (canine heart; 0.2 mg/kg i.v., 2 min) was 154 ± 8 beats per min and the Mean arterial pressure (canine heart; 0.2 mg/kg i.v., 2 min) was 93 ± 5 mmHg. It also gave an AH time (canine heart; 0.2 mg/kg i.v., 3 min) of 140 ± 12 ms, a Heart rate (canine heart; 0.2 mg/kg i.v., 3 min) of 141 ± 11 beats per min and a Mean arterial pressure (canine heart; 0.2 mg/kg i.v., 3 min) of 94 ± 5 mmHg. The AH time (canine heart; 0.2 mg/kg i.v., 4 min) was 127 ± 14 ms, the Heart rate (canine heart; 0.2 mg/kg i.v., 4 min) was 155 ± 16 beats per min and the Mean arterial pressure (canine heart; 0.2 mg/kg i.v., 4 min) was 97 ± 5 mmHg. For the same compound, the AH time (canine heart; 0.2 mg/kg i.v., 5 min) was 130 ± 11 ms, the Heart rate (canine heart; 0.2 mg/kg i.v., 5 min) was 146 ± 4 beats per min and the Mean arterial pressure (canine heart; 0.2 mg/kg i.v., 5 min) was 98 ± 3 mmHg. The “Occurrence of AV conduction block” value (canine heart; 0.2 mg/kg i.v., listed as 20R/80S-verapamil) was 5 animals, the “Occurrence of second and third degree AV conduction block” value (canine heart; 0.4 mg/kg i.v., listed as 20R/80S-verapamil) was “all” and the “Recovery of the decrease in MAP” value (canine heart; compared with any other groups) was “slower”. For the same compound, the “Peak effect on HR, in words” value (canine heart; dog, in vivo) was “drastic increase in HR”, the “QTc interval compared with 100R-verapamil, in words” value (canine heart; dog, in vivo) was “significantly increased compared with 100R-verapamil” and the “Interaction between MAP and HR (multiple linear regression), in words” value (canine heart; increase in HR against drop in MAP) was “greatest rate of increase in HR as opposed to a drop in MAP”. The “Eutectic compound identification (phase diagram based on Po/w)” value ([1]; pH 5) was “eutectic compound”, the Concentration in octanol ([1]; listed as 80) was 4160 ng/mL and 4490 ng/mL and 3810 ng/mL and the Concentration in water ([1]; listed as 80) was 6950 ng/mL and 6930 ng/mL and 6920 ng/mL.

For `COc1ccc(CCN(C)CCCC(C#N)(c2ccc(OC)c(OC)c2)C(C)C)cc1OC` (racemic) [R/S (4.5)], the “Heart rate (HR), significance vs predrug” value [3] was “n.s” and the “Peak systolic pressure (PSP), significance vs predrug” value [3] was “n.s”.
